IC50 and Ratio IC50 data for seven compounds are collected here from ChEMBL document CHEMBL4673207, “Recent advances in the discovery of potent and selective HDAC6 inhibitors” (Eur J Med Chem, 2018).

For test [1], the target named is T1, Polyamine deacetylase HDAC10 (Homo sapiens, UniProt Q969S8).
T1 sequence (Q969S8 whole entry): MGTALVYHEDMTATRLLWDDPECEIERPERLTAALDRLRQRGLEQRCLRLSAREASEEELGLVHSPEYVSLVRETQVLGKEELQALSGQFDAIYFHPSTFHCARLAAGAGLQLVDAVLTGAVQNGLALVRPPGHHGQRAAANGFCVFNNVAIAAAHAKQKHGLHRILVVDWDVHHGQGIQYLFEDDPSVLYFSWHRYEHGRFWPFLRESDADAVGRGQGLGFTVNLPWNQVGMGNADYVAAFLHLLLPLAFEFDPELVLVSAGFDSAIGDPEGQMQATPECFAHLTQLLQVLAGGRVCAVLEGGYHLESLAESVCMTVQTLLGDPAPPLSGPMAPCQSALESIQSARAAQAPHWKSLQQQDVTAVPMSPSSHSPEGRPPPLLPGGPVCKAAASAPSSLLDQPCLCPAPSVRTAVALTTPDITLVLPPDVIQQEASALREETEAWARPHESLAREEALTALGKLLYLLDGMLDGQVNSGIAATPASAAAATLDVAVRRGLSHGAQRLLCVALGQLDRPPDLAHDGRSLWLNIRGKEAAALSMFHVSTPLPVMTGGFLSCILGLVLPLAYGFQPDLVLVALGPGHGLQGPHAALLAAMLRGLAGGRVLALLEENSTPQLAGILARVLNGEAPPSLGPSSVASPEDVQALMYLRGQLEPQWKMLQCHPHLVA
In words: Inhibition of N-terminal Flag tagged- human HDAC10 (2 to 631 amino acids) expressed in baculovirus infected Sf9 cells using Fluor deLys substrate by fluorescence method.

Test [2] has as its target Histone deacetylase 5 (Homo sapiens, UniProt Q9UQL6). In words: Inhibition of human HDAC5 using Fluor deLys substrate by fluorescence method.
Test [3] has as its target Histone deacetylase 4 (Homo sapiens, UniProt P56524). In words: Inhibition of human HDAC4 expressed in sf9 cells using Fluor deLys substrate by fluorescence method.
Test [4] addresses T2, Histone deacetylase 2 (Homo sapiens, UniProt Q92769). In words: Inhibition of human HDAC2 using p53 fluorogenic peptide (379 to 382 residues) RHKKAc as substrate by fluorescence-based assay.
In test [5] the target is T3, Protein deacetylase HDAC6 (Homo sapiens, UniProt Q9UBN7).
T3 sequence (Q9UBN7 whole entry): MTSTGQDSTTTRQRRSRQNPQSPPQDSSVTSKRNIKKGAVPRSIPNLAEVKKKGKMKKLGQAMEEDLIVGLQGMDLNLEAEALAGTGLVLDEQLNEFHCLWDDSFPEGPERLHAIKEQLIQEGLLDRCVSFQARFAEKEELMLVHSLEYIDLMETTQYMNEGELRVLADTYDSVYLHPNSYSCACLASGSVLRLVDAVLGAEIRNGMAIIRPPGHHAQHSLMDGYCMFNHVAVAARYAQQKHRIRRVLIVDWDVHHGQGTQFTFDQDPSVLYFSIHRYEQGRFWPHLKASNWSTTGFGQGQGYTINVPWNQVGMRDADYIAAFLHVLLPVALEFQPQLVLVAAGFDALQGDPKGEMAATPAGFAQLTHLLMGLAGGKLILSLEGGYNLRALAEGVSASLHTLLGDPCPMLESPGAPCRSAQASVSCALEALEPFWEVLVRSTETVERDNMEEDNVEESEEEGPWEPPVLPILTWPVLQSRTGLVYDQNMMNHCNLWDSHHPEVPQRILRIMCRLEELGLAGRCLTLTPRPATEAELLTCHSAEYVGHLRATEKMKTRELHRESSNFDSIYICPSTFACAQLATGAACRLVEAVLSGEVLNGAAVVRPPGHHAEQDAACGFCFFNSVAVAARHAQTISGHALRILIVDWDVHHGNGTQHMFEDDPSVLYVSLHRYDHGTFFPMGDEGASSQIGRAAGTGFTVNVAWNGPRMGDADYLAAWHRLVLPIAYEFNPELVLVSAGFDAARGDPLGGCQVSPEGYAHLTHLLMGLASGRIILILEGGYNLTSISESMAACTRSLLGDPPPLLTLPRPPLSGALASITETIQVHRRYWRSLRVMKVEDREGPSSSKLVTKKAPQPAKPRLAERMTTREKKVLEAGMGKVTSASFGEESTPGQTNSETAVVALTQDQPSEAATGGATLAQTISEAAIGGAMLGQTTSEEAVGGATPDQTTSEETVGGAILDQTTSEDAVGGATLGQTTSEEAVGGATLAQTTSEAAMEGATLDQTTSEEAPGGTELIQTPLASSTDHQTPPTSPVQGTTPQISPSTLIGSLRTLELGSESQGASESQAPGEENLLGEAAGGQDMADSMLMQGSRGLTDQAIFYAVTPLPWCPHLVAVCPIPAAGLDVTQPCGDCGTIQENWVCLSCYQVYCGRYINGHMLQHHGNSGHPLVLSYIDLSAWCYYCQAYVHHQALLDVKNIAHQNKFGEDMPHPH
In words: Inhibition of human HDAC6 using p53 fluorogenic peptide (379 to 382 residues) RHKKAc as substrate by fluorescence-based assay.

The target in test [6] is T4, Histone deacetylase 1 (Homo sapiens, UniProt Q13547). In words: Inhibition of human HDAC1 using p53 fluorogenic peptide (379 to 382 residues) RHKKAc as substrate by fluorescence-based assay.
The test system of test [7] is HCT-116. In words: Antiproliferative activity against human HCT116 cells incubated for 72 hrs by MTT assay. It is filed as functional, cell-based. The settings on record: HCT-116, 72 h. (Tetrazolium assays rely on reduction of a dye to a coloured formazan, in cell work by metabolically active cells.)
In test [8] the test system is PC-3. In words: Antiproliferative activity against human PC3 cells incubated for 72 hrs by MTT assay. It is filed as functional, cell-based. The settings on record: PC-3, 72 h.
For test [9], the target named is T3, Protein deacetylase HDAC6. In words: Inhibition of human full-length recombinant HDAC6 using fluorogenic peptide […] (RHKK(Ac)) as substrate by fluorescence method.
In test [10] the target is T4, Histone deacetylase 1. In words: Inhibition of human full-length recombinant HDAC1 using p53 fluorogenic peptide ([…] residues) (RHKK(Ac)) as substrate by fluorescence method.
Test [11] addresses T2, Histone deacetylase 2. In words: Inhibition of human full-length recombinant HDAC2 using fluorogenic peptide ([…] residues) (RHKK(Ac)) as substrate by fluorescence method.
Test [12] has as its target Histone deacetylase. In words: Inhibition of HDAC in human HeLa cell extracts using Fluor de lys as substrate incubated for 30 mins by fluorimetric analysis.
Test [13] deals with HEK293T. In words: Selectivity ratio of IC50 for Flag-tagged HDAC1 (unknown origin) expressed in 293T cells to IC50 for Flag-tagged HDAC6 (unknown origin) expressed in 293T cells. The settings on record: Homo sapiens. It is filed as cell-based.
Test [14] has as its target T3, Protein deacetylase HDAC6. In words: Inhibition of Flag-tagged HDAC6 (unknown origin) expressed in 293T cells using ZMAL as substrate incubated for 180 mins by fluorescence method. Details: species or system HEK293T.
For test [15], the species on record is Homo sapiens. In words: Selectivity ratio of IC50 for human HDAC3 to IC50 for human HDAC6.
The species entered for test [16] is Homo sapiens. In words: Selectivity ratio of IC50 for human HDAC8 to IC50 for human HDAC6.
For test [17], the species on record is Homo sapiens. In words: Selectivity ratio of IC50 for human HDAC11 to IC50 for human HDAC6.
The species entered for test [18] is Homo sapiens. In words: Selectivity ratio of IC50 for human HDAC9 to IC50 for human HDAC6.
Test [19] is filed under the species Homo sapiens. In words: Selectivity ratio of IC50 for human HDAC10 to IC50 for human HDAC6.
The species entered for test [20] is Homo sapiens. In words: Selectivity ratio of IC50 for human HDAC5 to IC50 for human HDAC6.
The species named for test [21] is Homo sapiens. In words: Selectivity ratio of IC50 for human HDAC7 to IC50 for human HDAC6.
Test [22] is filed under the species Homo sapiens. In words: Selectivity ratio of IC50 for human HDAC4 to IC50 for human HDAC6.
The species entered for test [23] is Homo sapiens. In words: Selectivity ratio of IC50 for human HDAC1 to IC50 for human HDAC6.
Test [24] is filed under the species Homo sapiens. In words: Selectivity ratio of IC50 for human HDAC2 to IC50 for human HDAC6.
For test [25], the system named is CAL-27. In words: Antiproliferative activity against human Cal-27 cells by MTT assay. It is filed as functional, cell-based.
Test [26] has as its system A2780. In words: Antiproliferative activity against human A2780 cells by MTT assay. It is filed as functional, cell-based.

A value given as a limit tells only on which side of the number the result lay.

T2 sequence (Q92769 whole entry, the tested form may be a part): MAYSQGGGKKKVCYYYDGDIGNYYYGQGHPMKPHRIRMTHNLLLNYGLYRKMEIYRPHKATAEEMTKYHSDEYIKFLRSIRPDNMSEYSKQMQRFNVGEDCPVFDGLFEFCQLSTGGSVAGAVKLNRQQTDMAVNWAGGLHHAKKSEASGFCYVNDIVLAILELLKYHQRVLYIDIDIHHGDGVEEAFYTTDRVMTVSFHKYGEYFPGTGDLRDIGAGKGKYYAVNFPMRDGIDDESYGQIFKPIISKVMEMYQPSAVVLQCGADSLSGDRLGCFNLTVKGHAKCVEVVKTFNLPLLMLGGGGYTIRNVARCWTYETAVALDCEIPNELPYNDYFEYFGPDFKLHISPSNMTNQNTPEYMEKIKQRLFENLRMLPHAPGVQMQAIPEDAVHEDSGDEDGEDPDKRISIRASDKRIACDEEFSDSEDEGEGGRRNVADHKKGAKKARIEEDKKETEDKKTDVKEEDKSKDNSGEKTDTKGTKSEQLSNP
T4 sequence (Q13547 whole entry, the tested form may be a part): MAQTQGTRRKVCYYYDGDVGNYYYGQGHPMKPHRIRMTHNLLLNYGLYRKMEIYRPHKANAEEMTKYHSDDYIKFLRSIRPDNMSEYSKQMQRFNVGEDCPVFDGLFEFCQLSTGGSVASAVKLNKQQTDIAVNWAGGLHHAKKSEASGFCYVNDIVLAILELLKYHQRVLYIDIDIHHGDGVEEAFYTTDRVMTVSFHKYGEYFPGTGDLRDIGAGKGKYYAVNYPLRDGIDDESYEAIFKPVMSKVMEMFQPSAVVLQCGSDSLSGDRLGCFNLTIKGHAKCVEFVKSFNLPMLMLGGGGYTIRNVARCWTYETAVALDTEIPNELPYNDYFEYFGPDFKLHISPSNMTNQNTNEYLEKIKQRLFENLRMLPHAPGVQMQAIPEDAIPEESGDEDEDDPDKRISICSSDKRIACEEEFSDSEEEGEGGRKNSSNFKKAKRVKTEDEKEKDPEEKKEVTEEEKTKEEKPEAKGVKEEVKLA
Chain of Histone deacetylase 5 (Q9UQL6 whole entry): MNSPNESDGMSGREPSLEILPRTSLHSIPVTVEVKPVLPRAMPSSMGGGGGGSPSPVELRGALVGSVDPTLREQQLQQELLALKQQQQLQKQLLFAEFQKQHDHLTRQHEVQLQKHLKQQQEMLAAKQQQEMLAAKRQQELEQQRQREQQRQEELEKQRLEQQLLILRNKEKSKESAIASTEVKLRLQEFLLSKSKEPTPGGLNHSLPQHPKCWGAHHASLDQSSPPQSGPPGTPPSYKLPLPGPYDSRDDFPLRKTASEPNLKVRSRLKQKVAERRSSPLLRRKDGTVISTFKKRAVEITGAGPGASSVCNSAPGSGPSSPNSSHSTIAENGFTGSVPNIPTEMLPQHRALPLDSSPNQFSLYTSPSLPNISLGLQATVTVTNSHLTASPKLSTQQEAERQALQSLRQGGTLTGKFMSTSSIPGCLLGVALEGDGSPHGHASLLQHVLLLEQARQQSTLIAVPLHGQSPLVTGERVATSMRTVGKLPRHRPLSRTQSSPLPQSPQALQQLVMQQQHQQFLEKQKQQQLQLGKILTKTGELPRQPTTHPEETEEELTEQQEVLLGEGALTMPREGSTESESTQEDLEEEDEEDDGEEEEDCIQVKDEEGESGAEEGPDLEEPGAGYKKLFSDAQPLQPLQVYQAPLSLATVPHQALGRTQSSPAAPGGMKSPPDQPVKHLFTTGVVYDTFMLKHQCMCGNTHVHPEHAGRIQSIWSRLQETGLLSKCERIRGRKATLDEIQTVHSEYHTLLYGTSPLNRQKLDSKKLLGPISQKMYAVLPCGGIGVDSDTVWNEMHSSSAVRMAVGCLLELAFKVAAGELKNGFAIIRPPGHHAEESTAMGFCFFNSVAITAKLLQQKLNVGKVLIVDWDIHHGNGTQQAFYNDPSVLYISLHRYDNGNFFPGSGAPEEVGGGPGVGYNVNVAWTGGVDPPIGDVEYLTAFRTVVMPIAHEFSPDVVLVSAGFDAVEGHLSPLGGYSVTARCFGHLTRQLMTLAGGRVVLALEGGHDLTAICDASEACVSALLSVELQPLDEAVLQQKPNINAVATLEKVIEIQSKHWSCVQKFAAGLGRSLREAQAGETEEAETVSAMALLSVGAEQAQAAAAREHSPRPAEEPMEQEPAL
Chain of Histone deacetylase 4 (P56524 whole entry, the tested form may be a part): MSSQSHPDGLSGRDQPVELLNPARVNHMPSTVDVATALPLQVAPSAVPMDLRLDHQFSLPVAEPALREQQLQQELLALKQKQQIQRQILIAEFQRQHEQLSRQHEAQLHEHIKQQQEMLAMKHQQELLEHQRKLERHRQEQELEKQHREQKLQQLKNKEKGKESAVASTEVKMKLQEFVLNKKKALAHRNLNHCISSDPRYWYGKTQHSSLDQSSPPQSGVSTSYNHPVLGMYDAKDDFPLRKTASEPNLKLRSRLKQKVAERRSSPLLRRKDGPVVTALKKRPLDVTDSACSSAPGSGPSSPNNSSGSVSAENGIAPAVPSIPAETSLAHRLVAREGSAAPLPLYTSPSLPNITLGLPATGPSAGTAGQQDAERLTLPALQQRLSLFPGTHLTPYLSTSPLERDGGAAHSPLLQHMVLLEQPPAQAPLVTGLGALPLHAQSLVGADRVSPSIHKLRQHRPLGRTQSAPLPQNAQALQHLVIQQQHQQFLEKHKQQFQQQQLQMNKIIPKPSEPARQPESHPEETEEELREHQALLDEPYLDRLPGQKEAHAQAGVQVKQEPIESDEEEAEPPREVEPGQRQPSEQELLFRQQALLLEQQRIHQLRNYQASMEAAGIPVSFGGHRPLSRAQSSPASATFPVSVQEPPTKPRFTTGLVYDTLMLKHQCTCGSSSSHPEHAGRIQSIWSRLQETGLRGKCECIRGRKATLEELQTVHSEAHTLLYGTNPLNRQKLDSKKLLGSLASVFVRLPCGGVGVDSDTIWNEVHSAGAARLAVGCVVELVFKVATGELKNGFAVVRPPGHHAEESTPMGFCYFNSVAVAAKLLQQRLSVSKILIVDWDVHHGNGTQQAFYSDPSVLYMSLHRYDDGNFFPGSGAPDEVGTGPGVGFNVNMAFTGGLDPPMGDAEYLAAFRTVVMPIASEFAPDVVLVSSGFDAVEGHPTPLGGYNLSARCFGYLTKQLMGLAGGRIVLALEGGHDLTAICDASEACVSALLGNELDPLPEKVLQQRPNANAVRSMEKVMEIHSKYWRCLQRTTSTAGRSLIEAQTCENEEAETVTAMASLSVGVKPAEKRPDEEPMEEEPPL

Usually IC50 stands for the concentration needed to halve the response being measured. In the case of `CN(C)c1cccc2c(S(=O)(=O)NCCCCCC(=O)NO)cccc12`, the IC50 was found to be 0.42 µM in test [1], 0.4 µM in test [2] and 0.33 µM in test [3].

In the case of `O=C(NO)c1ccc(Cn2c(=O)c(F)cn(C3CCCO3)c2=O)cc1` (stereo not given), the IC50 was 5.5 µM in test [4]; 0.0124 µM in test [5]; 1.71 µM in test [6]; 8.08 µM in test [7]; 11.4 µM in test [8].

In the case of `O=C(/C=C/c1cccn(CCCc2ccc3ccccc3c2)c1=O)NO`, the concentration for half-maximal inhibition (IC50) came out at 0.00246 µM in test [9], 0.0194 µM in test [10], 0.128 µM in test [11] and 0.07 µM in [12].

For the compound `COC(=O)[C@@H](Cc1ccccn1)NC(=O)CCCCCCC(=O)NO`, in test [13], the Ratio IC50 amounted to 20. In test [14], the concentration for half-maximal inhibition (IC50) was 4.01 µM.

For the compound `O=C(NO)c1ccc(NCc2csc3ccccc23)cc1`, the Ratio IC50 in test [15], in test [16], in test [17], in [18], in [19] and in test [20] was above 100 in each case. Moreover, the Ratio IC50 in test [21], in test [22], in test [23] and in [24] was above 100 in each case.

As to `CN(C)c1ccc(C(=O)N(CC(=O)NC2CCCCC2)Cc2ccc(C(=O)NO)cc2)cc1`, the 50% inhibitory concentration (IC50) in test [25] is 2.04 µM; in [26] it was 0.34 µM; in test [4], 0.2 µM; in test [5], 0.00159 µM.

Take `O=C(NO)c1ccc(Cn2c3c(c4ccccc42)CS(=O)(=O)CC3)cc1`: the values for the Ratio IC50 in test [22] and in test [23] were 842 and 5790, respectively.
